Some test systems named below: CCRF-CEM leukemia; COLO 205 colon; HCT-116 colon; HOP-62 NSCLC; RPMI-8226 leukemia; SF-268 CNS; SNB-75 CNS; UACC-62 melanoma; LOX IMVI melanoma.
Common to all, as to assay: NCI tumour cell line growth inhibition, 48 h

Experimental findings from PubChem BioAssay (NCI) are described below.

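All cell lines were grown in 96-well plates and treated with compound for 48 hours. GI50 is the concentration that inhibits growth by half. TGI: concentration producing complete growth inhibition.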

For the compound `C=CCC12CC(=O)C=C1CCC1(C2)OCCO1` (centres undefined), the TGI in the assay with CCRF-CEM leukemia, with COLO 205 colon, in the assay with HCT-116 colon, with HOP-62 NSCLC, in the assay on RPMI-8226 leukemia and with SF-268 CNS was greater than 100 µM each time. Further, the TGI in the assay on SNB-75 CNS and with UACC-62 melanoma was greater than 100 µM throughout.
In the case of `N#CCCN(CCC#N)c1ccc(/C=N\c2nc(-c3ccccc3)cs2)cc1`, the TGI with COLO 205 colon, in the assay on HCT-116 colon, in the assay on HOP-62 NSCLC, in the assay on LOX IMVI melanoma, in the assay on RPMI-8226 leukemia and in the assay with SF-268 CNS was greater than 100 µM in each case. Also, the TGI in the assay with SNB-75 CNS and in the assay on UACC-62 melanoma was greater than 100 µM throughout.
On to `Cc1cc(Cl)ccc1NC(=O)CC1SC(N)=NC1=O` (centres undefined), for which the TGI in the assay with CCRF-CEM leukemia, with COLO 205 colon, with HOP-62 NSCLC, in the assay with LOX IMVI melanoma, with RPMI-8226 leukemia and in the assay on SF-268 CNS was greater than 100 µM throughout. Moreover, the TGI in the assay on SNB-75 CNS and in the assay with UACC-62 melanoma was greater than 100 µM throughout.
Take `CC(=O)OC1(C#N)CC2OC1C1C2N1C(=O)OC(C)(C)C` (centres undefined): the TGI in the assay with CCRF-CEM leukemia, in the assay with COLO 205 colon, in the assay with HCT-116 colon, in the assay on HOP-62 NSCLC, in the assay on LOX IMVI melanoma and with RPMI-8226 leukemia was greater than 100 µM each time. The TGI with SF-268 CNS, with SNB-75 CNS and in the assay with UACC-62 melanoma was greater than 100 µM each time.
Turning to `Cc1ccc(NC(=O)COC(=O)c2cccc3c(=O)c4ccccc4[nH]c23)cc1`, the TGI was 77.9 µM with COLO 205 colon; greater than 100 µM with HCT-116 colon; greater than 100 µM in the assay on HOP-62 NSCLC; 60 µM in the assay with LOX IMVI melanoma; greater than 100 µM with RPMI-8226 leukemia; greater than 100 µM in the assay on SF-268 CNS. For the same compound, the TGI was 94.9 µM in the assay on SNB-75 CNS and greater than 100 µM with UACC-62 melanoma.
Consider `COC(=O)c1c(C)cc2c(c1O)C1(O)C(=O)c3cc4c(c(O)c3C(=O)C1(OC)C(O)C2)C(=O)C=C(NC1OC(C)C(OC)C(O)C1OC)C4=O` (centres undefined), for which the TGI in the assay with CCRF-CEM leukemia was 0.166 µM; with COLO 205 colon, 0.186 µM; in the assay with HCT-116 colon it was 0.177 µM; in the assay on HOP-62 NSCLC it was 1.26 µM; with LOX IMVI melanoma, 0.0866 µM; with RPMI-8226 leukemia, 0.303 µM. The TGI with SF-268 CNS stood at 0.648 µM; in the assay with SNB-75 CNS, 0.277 µM; in the assay with UACC-62 melanoma, 0.0502 µM.
As for `CN(C)CC(C)(C)C(/C=C/c1ccccc1)=N\Nc1ccccc1`, the TGI with CCRF-CEM leukemia came to 16.2 µM; in the assay on COLO 205 colon, 11.3 µM; in the assay with HCT-116 colon, 15.7 µM; with HOP-62 NSCLC, 64.7 µM; in the assay with LOX IMVI melanoma, 15.7 µM; with RPMI-8226 leukemia, 19.4 µM. Further, the figures for the TGI with SF-268 CNS, in the assay with SNB-75 CNS and in the assay on UACC-62 melanoma were 15.4 µM, 46.8 µM and 1.07 µM, respectively.
Take `O=C1CCCC(=O)C1=C(O)CCCCCCCCCCc1ccccc1`: the TGI in the assay with CCRF-CEM leukemia was 70.8 µM; in the assay with COLO 205 colon, 31.8 µM; in the assay on HCT-116 colon it was greater than 100 µM; in the assay with HOP-62 NSCLC, greater than 100 µM; with LOX IMVI melanoma, greater than 100 µM; with RPMI-8226 leukemia, greater than 100 µM. Further, the TGI was greater than 100 µM in the assay on SF-268 CNS, 95.4 µM in the assay with SNB-75 CNS and greater than 100 µM in the assay on UACC-62 melanoma.
On to `Cc1ccc([N+](=O)[O-])cc1NC(=O)C(=O)Cc1cc(=O)oc2cc(O)ccc12`, for which the TGI in the assay on CCRF-CEM leukemia is greater than 100 µM; in the assay on COLO 205 colon, greater than 100 µM; in the assay on HCT-116 colon, 47.5 µM; in the assay on HOP-62 NSCLC it was greater than 100 µM; in the assay on LOX IMVI melanoma, 97 µM; in the assay with RPMI-8226 leukemia, 75.3 µM. Also, the TGI in the assay on SF-268 CNS, with SNB-75 CNS and in the assay on UACC-62 melanoma was greater than 100 µM in each case.
Take `Cc1cc(NS(=O)(=O)c2ccc(NC(=O)c3cccc4cc5ccccc5nc34)cc2)no1`: the TGI is 54.3 µM with CCRF-CEM leukemia; 53.4 µM in the assay with COLO 205 colon; 19.6 µM in the assay on HCT-116 colon; 66.4 µM with HOP-62 NSCLC; 55.9 µM with RPMI-8226 leukemia; greater than 100 µM in the assay with SF-268 CNS. In addition, the results for the TGI in the assay on SNB-75 CNS and in the assay on UACC-62 melanoma were 41.9 µM and 48.5 µM, respectively.
`N#CCc1ccc(/C(C#N)=C2/OC(=N)C(c3ccc(CC#N)cc3)C2=O)cc1` (centres undefined): the TGI with CCRF-CEM leukemia, in the assay on COLO 205 colon, in the assay with HCT-116 colon, in the assay with HOP-62 NSCLC, in the assay with LOX IMVI melanoma and with RPMI-8226 leukemia was greater than 100 µM each time. Also, the TGI in the assay with SF-268 CNS, with SNB-75 CNS and in the assay on UACC-62 melanoma was greater than 100 µM each time.
As to `O=C1C2C(C(=O)N1c1ccccc1)C1(c3ccccc3)OC2(c2ccccc2)c2ccccc21` (centres undefined), the TGI with CCRF-CEM leukemia, in the assay on COLO 205 colon, in the assay with HOP-62 NSCLC, in the assay with LOX IMVI melanoma, in the assay on RPMI-8226 leukemia and in the assay on SF-268 CNS was greater than 100 µM throughout. The TGI with SNB-75 CNS and with UACC-62 melanoma was greater than 100 µM each time.
On to `Oc1ccc2c3c1OC1C(=NN=C4CCC5(O)C6Cc7ccc(O)c8c7C5(CCN6CC5CC5)C4O8)CCC4(O)C(C2)N(CC2CC2)CCC314` (centres undefined), for which the TGI in the assay on CCRF-CEM leukemia was greater than 68.1 µM; with COLO 205 colon, 38.4 µM; with HCT-116 colon, 30.1 µM; in the assay on HOP-62 NSCLC it was greater than 65.7 µM; with LOX IMVI melanoma it was 39.1 µM; with RPMI-8226 leukemia, 88.7 µM. For the same compound, the TGI in the assay with SF-268 CNS was greater than 83.3 µM; in the assay on SNB-75 CNS, greater than 71.8 µM; with UACC-62 melanoma, 41.2 µM.
For `CC(=O)c1c(O)ccc2c(C)c(C(=O)O)oc12`, the GI50 in the assay on CCRF-CEM leukemia, in the assay on COLO 205 colon, in the assay with HCT-116 colon, with HOP-62 NSCLC, with LOX IMVI melanoma and in the assay with RPMI-8226 leukemia was greater than 100 µM throughout. For the same compound, the GI50 was greater than 100 µM in the assay on SF-268 CNS, greater than 100 µM in the assay with SNB-75 CNS and 80.4 µM with UACC-62 melanoma. The TGI in the assay on CCRF-CEM leukemia, in the assay on COLO 205 colon, with HCT-116 colon, in the assay on HOP-62 NSCLC, in the assay on LOX IMVI melanoma and in the assay with RPMI-8226 leukemia was greater than 100 µM in each case. Further, the TGI with SF-268 CNS, in the assay on SNB-75 CNS and with UACC-62 melanoma was greater than 100 µM in each case.
